Assay results published in US9073919B2, “Pyrazolo pyridine derivatives as NADPH oxidase inhibitors” (GENKYOTEX SA, priority 2007, dated 2015).

Experiments:
Type in all cases: cell-based, human
NOX [1] = test: Nitroblue tetrazolium (NBT) superoxide test in cells; settings: DPI 10 μM, % of the activity in control cells, 'usually'
Method: Human microglia cell line (HMC3, human microglia clone 3) (Janabi et al, 1995, Neurosci Lett 195:105) were cultured in MEM (Eagle's minimum essential medium) containing 10% FBS with 50 U/ml penicillin G sodium 50 μg/ml streptomycin sulfate, and incubated at 37° C. for 24 hours. IFN-γ (human IFN-γ, Roche. 11 040 596 001) was added to the culture medium for a final concentration of 10 ng/ml 24 h, before detection of O2^− formation. […]
Intracellular and extracellular superoxide was measured by a colorimetric technique using a quantitative nitroblue tetrazolium (NBT) test. SOD-inhibitable conversion of NBT to formazan, a fine blue precipitate, in the presence of superoxide anion was measured using Fluostar Optima spectrometer (BMG labtech). […] The absorption was measured at 630 nm. For calculation, the absorbance at 630 nm was normalized for each individual well. […] NOX activities were expressed as % of the activity in control cells. […]

NOX [2] = test: H2DCF-DA fluorescence in TGF-β stimulated HUVEC; settings: % of the activity in control cells, 'usually'
Method: HUVEC are cultured in endothelial basal medium supplemented with hydrocortisone (1 μg/mL, CalbioChem), bovine brain extract (12 μg/mL), gentamicin (50 μg/mL, CalbioChem), amphotericin B (50 ng/mL, CalBioChem EGF (10 ng/mL, and 10% FCS until the fourth passage. When the fifth passage was started, cells were cultured with a lower concentration of FCS (2%) in the absence of EGF, if not indicated otherwise. All experiments were done with cells of the fifth passage. The cells were incubated with OxLDL (oxidized low-density lipoprotein) or its buffer as control for 24 h, before detection of O2^− formation.
HUVEC were plated on coverslips and made quiescent overnight in 0.5% BSA before stimulation with TGF-β. Cells were loaded for 10 minutes with 5 μM CM-H2DCFDA in phenol-red-free medium in the dark and then treated with TGF-β (R&D Systems) in the presence or absence of compounds according to the invention. Cells were then visualized by immunofluorescence microscopy after fixation and staining of the nuclei with DAPI or examined live using confocal microscopy. DCF fluorescence was visualized at an excitation wavelength of 488 nm and emission at 515 to 540 nm. […] For calculation, the absorbance at […] was normalized to absorbance at […] for each individual well. […] NOX activities were expressed as % of the activity in control cells. […]

NOX [3] = test: Amplex Red, extracellular hydrogen peroxide, DMSO-differentiated HL60 cells; settings: DPI 10 μM, % of the activity in control cells, 'usually'
Method: Human acute myeloid leukemia cell line HL-60 was cultured in RPMI 1640 (Invitrogen) supplemented with 10% heat-inactivated calf serum, 2 mM glutamine, 100 U/mL penicillin (Sigma), and 100 μg streptomycin (Sigma) at 37° C. under a humidified atmosphere of 5% CO2. HL60 differentiation to the neutrophil phenotype was triggered by adding Me2SO (final concentration 1.25% v/v for 6 days) to the culture medium.
(§1) Extracellular hydrogen peroxide was measured using Amplex UltraRed (Molecular Probes). Cells were trypsinized (1× Trypsin-EDTA), collected by centrifugation, and resuspended in HBSS supplemented with 1% glucose. Cells were seeded into black 96-well plates at a density of 50,000 cells in 200 μl testing buffer (HBSS 1% glucose containing 0.005 U/mL horseradish peroxidase (Roche) and 50 μM Amplex Red in the presence or absence of compounds according to the invention. As a control, DPI was included at a final concentration of 10 μM The plates were placed in the fluorescent Optima Fluorescent plate reader and kept at 37° C. during 20 min. Fluorescence was measured for […] with excitation and emission wavelengths of 544 nm and 590 nm respectively. NOX activities were expressed as % of the activity in control cells. Residual activity of DPI-treated cells was usually <10%.

NOX [4] = test: Chemiluminescence (luminol) ROS measurement in cells; settings: % of the activity in control cells, 'usually'
Method: as §1
ROS was measured using the chemiluminescent probe luminol. Cells were cultured and plated as for Amplex Red except that the Amplex Red agent was replaced by 10 μg/mL luminol (Sigma 09235). Light emission was recorded continuously at 37° C. for 60 minutes using the luminescence function of the FluoStar Optima fluorescent plate reader. The mean of the four blank values was subtracted from each corrected value for each time point. NOX activities were expressed as % of the activity in control cells. […]

Measured: Residual activity of DPI-treated cells

c1ccc([I+]c2ccccc2)cc1 [DPI, Diphenyl-iodonium]
< 10%: all assays above
